Results published in patent US20120116069A1, “GLUCOSE METABOLISM-IMPROVING AGENT AND GLUCOSE METABOLISM-IMPROVING COMPOSITION” (LION CORPORATION, priority 2009, published 2012).
Marks after values point to notes of the source that are not given here.

Test system: cells derived from rat skeletal muscle (L6 cells)
Assay: Intake of RI-labeled 2-deoxyglucose into differentiated L6 cells
Assay type: cell-based
Settings: n=4
Method: Cells derived from rat skeletal muscle (L6 cells, product of Dainippon Pharmaceutical Co., Ltd.) were suspended in 15 mL of DMEM (Dulbecco's modified Eagle medium, product of SIGMA Co.) containing 10% by mass FBS (fetal bovine serum, product of GIBCO Co.) and 1% by mass AB (anti-biotic solution, product of SIGMA Co.). The resultant suspension was dispensed into 75-cm^2 culture flasks and then statically cultured at 37° C. under 5% CO2. After having reached subconfluency (80%), each culture was placed in a 24-well plate (product of SUMITOMO BAKELITE CO., LTD.) at 50,000 cells/well. After having reached confluency, the cells were cultured for three days. Then, the medium was exchanged with MEM (minimal essential medium, product of NACALAI TESQUE, INC.) containing 2% by mass FBS and 1% by mass AB to thereby induce differentiation of the L6 cells. Eight days after the induction of differentiation, a solution of panaxatriol (PT) (product of LKT Laboratories, Inc.) in ethanol was added to the resultant medium so that the concentration of panaxatriol (PT) was 1 ppm or 10 ppm. The PT-free well was used as a control for each of these wells. Then, 30 hours after, the medium of each well was exchanged with MEM containing 2% by mass BSA (bovine serum albumin, product of SIGMA Co.) and panaxatriol (PT) at a concentration of 1 ppm or 10 ppm, to thereby terminate sensitization. Furthermore, 18 hours after, the MEM containing 2% by mass BSA was removed, and a KRH buffer (50 mM HEPES (product of SIGMA Co.), pH 7.4, 137 mM sodium chloride (product of Wako Pure Chemical Industries, Ltd.), 4.8 mM potassium chloride (product of Wako Pure Chemical Industries, Ltd.), 1.85 mM calcium chloride (product of Wako Pure Chemical Industries, Ltd.) and 1.3 mM magnesium sulfate (product of Wako Pure Chemical Industries, Ltd.)) was added to the wells at 30 μL/well. Thereafter, 6 μL of RI-labeled 2-deoxyglucose (2-DG, product of American Radiolabeled Chemicals Co.) (final concentration: 6.5 mM (0.5·Ci)) was added to the wells to perform reaction. Five minutes after the initiation of reaction, the cells were washed four times with an ice-cooled KRH buffer to remove 2-DG that had not been taken into the L6 cells. After removal of the KRH buffer, the cells were lysed with 250 μL of 0.05N sodium hydroxide (product of Wako Pure Chemical Industries, Ltd.) and recovered in a vial. In addition, the wells were washed twice with 200 μL of the KRH buffer and recovered in the vial similarly. Then, 3 mL of liquid scintillation cocktail PICOFLOUR (product of PerkinElmer Co., Ltd.) was added to the vial containing the cells recovered, followed by measuring for radioactivity with a liquid scintillation counter (LSC-5100, product of Aloka Co.). […]

Row | SMILES | Relative activity (radioactivity of 2-DG taken in, compound-free well = 100) (1 ppm) | Relative activity (radioactivity of 2-DG taken in, compound-free well = 100) (10 ppm)
1 | CC1(C)CCC[C@](C)([C@H]2CC[C@]3(C)[C@@H]2[C@H](O)C[C@@H]2[C@@]4(C)CC[C@H](O)C(C)(C)[C@@H]4CC[C@]23C)O1 [PD, panaxadiol] | 130* | 140**
2 | CC1(C)CCC[C@](C)([C@H]2CC[C@]3(C)[C@@H]2[C@H](O)C[C@@H]2[C@@]4(C)CC[C@H](O)C(C)(C)[C@@H]4[C@@H](O)C[C@]23C)O1 [PT, panaxatriol] | 132* | 145**
